Test results from the supplement of paper PMC10307832.

How the values were obtained:
Assay in all cases: relative viability (nuclei count vs DMSO), 5 days (fraction); higher = more cells survive
Alpelisib + Palbociclib = compound: Cc1nc(NC(=O)N2CCC[C@H]2C(N)=O)sc1-c1ccnc(C(C)(C)C(F)(F)F)c1 [Alpelisib] + CC(=O)c1c(C)c2cnc(Nc3ccc(N4CCNCC4)cn3)nc2n(C2CCCC2)c1=O [Palbociclib] (partner 0.5 µM)
Summary of the method: (§1)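 The day after seeding in 1536-well plates, lung cancer cell lines were treated by pin tool with a single drug, or with a fixed anchor-drug dose together with five library-drug doses (not always all listed) in √10 steps. After 5 days, a combined fix-and-stain solution (final 0.05% Triton X-100, 1% formaldehyde, 1 ug/ml Hoechst) was added. Nuclei counted on 4× images gave relative viability as treated counts over vehicle counts, reported as the median of duplicate plates.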

Alpelisib + AZD7762 = compound: Cc1nc(NC(=O)N2CCC[C@H]2C(N)=O)sc1-c1ccnc(C(C)(C)C(F)(F)F)c1 [Alpelisib] + NC(=O)Nc1cc(-c2cccc(F)c2)sc1C(=O)N[C@H]1CCCNC1 [AZD7762] (partner 0.2 µM)
Summary of the method: as §1

Alpelisib + Decitabine = compound: Cc1nc(NC(=O)N2CCC[C@H]2C(N)=O)sc1-c1ccnc(C(C)(C)C(F)(F)F)c1 [Alpelisib] + Nc1ncn([C@H]2C[C@H](O)[C@@H](CO)O2)c(=O)n1 [Decitabine] (partner 2 µM)
Summary of the method: as §1

Vemurafenib + Trametinib = compound: CCCS(=O)(=O)Nc1ccc(F)c(C(=O)c2c[nH]c3ncc(-c4ccc(Cl)cc4)cc23)c1F [Vemurafenib] + CC(=O)Nc1cccc(-n2c(=O)n(C3CC3)c(=O)c3c(Nc4ccc(I)cc4F)n(C)c(=O)c(C)c32)c1 [Trametinib] (partner 0.02 µM)
Summary of the method: as §1

Cell Line | relative viability (Alpelisib + Palbociclib; first compound 0.04 µM) | relative viability (Alpelisib + Palbociclib; first compound 0.1265 µM) | relative viability (Alpelisib + Palbociclib; first compound 0.4 µM) | relative viability (Alpelisib + Palbociclib; first compound 1.265 µM) | relative viability (Alpelisib + Palbociclib; first compound 4 µM) | relative viability (Alpelisib + AZD7762; first compound 0.04 µM) | relative viability (Alpelisib + AZD7762; first compound 0.1265 µM) | relative viability (Alpelisib + AZD7762; first compound 0.4 µM) | relative viability (Alpelisib + AZD7762; first compound 1.265 µM) | relative viability (Alpelisib + AZD7762; first compound 4 µM) | relative viability (Alpelisib + Decitabine; first compound 0.04 µM) | relative viability (Alpelisib + Decitabine; first compound 0.1265 µM) | relative viability (Alpelisib + Decitabine; first compound 0.4 µM) | relative viability (Alpelisib + Decitabine; first compound 1.265 µM) | relative viability (Alpelisib + Decitabine; first compound 4 µM) | relative viability (Vemurafenib + Trametinib; first compound 0.03162 µM) | relative viability (Vemurafenib + Trametinib; first compound 0.1 µM) | relative viability (Vemurafenib + Trametinib; first compound 0.3162 µM) | relative viability (Vemurafenib + Trametinib; first compound 1 µM)
NCI-H1355 | 0.403 | 0.412 | 0.377 | 0.341 | 0.267 | 0.792 | 0.78 | 0.704 | 0.636 | 0.553 | 0.41 | 0.386 | 0.328 | 0.328 | 0.297 | 0.454 | 0.35 | 0.464 | 0.523
HCC-827 | 0.509 | 0.489 | 0.485 | 0.41 | 0.386 | 0.253 | 0.212 | 0.209 | 0.199 | 0.168 | 0.33 | 0.346 | 0.347 | 0.302 | 0.254 | 0.52 | – | 0.73 | 0.585
NCI-H2085 | 0.464 | 0.484 | 0.455 | 0.447 | 0.446 | 0.946 | 0.781 | 1.09 | 0.944 | 0.865 | 0.601 | 0.524 | 0.538 | 0.574 | 0.467 | 0.529 | 0.477 | 0.663 | 0.621
NCI-H1755 | 0.417 | 0.41 | 0.458 | 0.371 | 0.382 | 0.378 | 0.544 | 0.465 | 0.326 | 0.362 | 0.661 | 0.69 | 0.778 | 0.678 | 0.575 | 0.812 | 0.73 | 0.761 | 0.763
PC-14 | 0.556 | 0.499 | 0.602 | 0.464 | 0.497 | 0.324 | 0.236 | 0.448 | 0.307 | 0.35 | 0.244 | 0.243 | 0.248 | 0.196 | 0.221 | 0.735 | – | 0.862 | 0.803
NCI-H3122 | 0.163 | 0.162 | 0.188 | 0.185 | 0.144 | 0.989 | 1.03 | 0.978 | 0.693 | 0.589 | 0.371 | 0.454 | 0.374 | 0.278 | 0.209 | 0.219 | 0.271 | 0.243 | 0.304
HCC-44 | 0.98 | 0.921 | 0.988 | 0.881 | 0.913 | 1 | 1.02 | 1.02 | 1.03 | 1.07 | 0.891 | 0.97 | 1.02 | 0.921 | 0.889 | 1.01 | 1 | 1.02 | 1.14
NCI-H460 | 0.338 | 0.155 | 0.166 | 0.0802 | 0.114 | 0.542 | 0.638 | 0.746 | 0.513 | 0.404 | 0.496 | 0.571 | 0.436 | 0.442 | 0.291 | 0.137 | 0.131 | 0.138 | 0.218
NCI-H1915 | 0.555 | 0.531 | 0.573 | 0.474 | 0.471 | 0.688 | 0.713 | 0.69 | 0.676 | 0.611 | 0.267 | 0.285 | 0.255 | 0.265 | 0.251 | 0.308 | 0.26 | 0.328 | 0.358
NCI-H2126 | 0.363 | 0.334 | 0.345 | 0.359 | 0.334 | 0.998 | 1.01 | 0.945 | 0.904 | 0.769 | 0.586 | 0.576 | 0.607 | 0.454 | 0.428 | 0.513 | 0.535 | 0.564 | 0.543
EPLC-272H | 0.289 | 0.333 | 0.324 | 0.291 | 0.267 | 0.237 | 0.251 | 0.24 | 0.271 | 0.186 | 0.337 | 0.374 | 0.388 | 0.297 | 0.284 | 0.282 | 0.323 | 0.338 | 0.331
LCLC-103H | 0.451 | 0.489 | 0.457 | 0.427 | 0.37 | 0.72 | 0.872 | 0.631 | 0.61 | 0.591 | 0.688 | 0.717 | 0.775 | 0.571 | 0.465 | 0.668 | 0.619 | 0.685 | 0.768
PC-3 [JPC-3] | 0.591 | 0.556 | 0.581 | 0.521 | 0.559 | 0.808 | 0.755 | 0.781 | 0.601 | 0.516 | 0.798 | 0.757 | 0.887 | 0.813 | 0.79 | – | – | 0.649 | 0.802
NCI-H2087 | 0.301 | 0.237 | 0.246 | 0.257 | 0.193 | 1.39 | 1.3 | 1.59 | 1.22 | 1.36 | 0.311 | 0.203 | 0.325 | 0.26 | 0.135 | 0.204 | 0.14 | 0.292 | 0.256
